Laboratory results published in article PMC12648313, “Enhancing the Efficacy, Utility, and Throughput of the Transcription Block Survival Peptide Library Screening Platform” (JACS Au, 2025).

Legend:
ATF2 = target: T1, ATF2 (Homo sapiens, UniProt P15336); assay: Isothermal titration calorimetry; format: binding; conditions: 20 °C, pH 7.4, average of three independent experiments ± SD
T1 construct: human ATF2 bZIP domain spans from Asp352 to Gln410; made in house; host or cells: chemical synthesis (Fmoc solid-phase peptide synthesis), no expression host
T1 sequence (P15336 352-410): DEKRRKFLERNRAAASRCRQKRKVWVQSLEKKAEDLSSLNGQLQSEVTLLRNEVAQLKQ
Excerpt: 5 Biophysical characterization of the ATF2-ATF2W interaction. (A) CD spectra of ATF2 and ATF2W indicating an increase in helicity upon mixture of the two components, indicative of the formation of a heterodimeric coiled coil. (B) CD thermal denaturation experiment indicates a T m shift upon mixture of ATF2/ATF2W, supporting the formation of a stable heterodimer. The “average” CD trace in A and B represents an averaged value of the two unbound components which would be the trace for no interaction. (C) ITC data for ATF2W (50 μM) titrated into ATF2 (5 μM) at 20 °C. The raw power compensation plot is shown in the upper graph and the integrated data points and single site model fitted line are shown in the lower graph. […] ATF2W is selective for ATF2, with a ∼ 3-fold reduction in antagonism for CREB1/CRE and cJun/TRE despite high structural and sequence homology. […]
removed before peptide concentration determination.
Peptide samples were suspended in 20
Post-melt scans at 20°C confirmed the
Sequential 2 µL injections of ATF2W (50 µM)
Data from a control experiment whereby […]
errors are given as one standard deviation.
Fluorescence polarisation: Fluorescence polarisation was measured in a CLARIOstar

ATF2 bZIP-CRE DNA = assay: TBS peptide library screening, competition selection; format: cell-based, human ATF2 bZIP, in E. coli BL21-Gold; conditions: 11.3-million-member library; nine rounds of selection; 9xCRE mDHFR; selective M9, 37 °C
Excerpt: This validates the new TBS design for the introduction of a transcriptional block and for the ability of antagonist peptides to restore bacterial growth in the CRE/CREB systems. We next constructed an 11.3-million-member peptide library to identify antagonists of ATF2, representing the first such effort to target this TF. This library design includes an N-terminal acidic domain, developed by Vinson and coworkers to engage bZIP DNA-binding domains (DBDs), followed by a semirandomized LZ region. Canonical coiled coil heptad repeat e and g positions were semirandomized to include glu, gln or lys options, with two exceptions to increase library diversity: e7 (ile, asn, asp or val) and g8 (leu, gln, glu or val). The a positions were randomized to select from leu, ile or val, to optimize hydrophobic packing in the coiled coil core, except a6 which also included asn or asp to investigate potential core polar interactions. The d positions were fixed as leu to promote formation of a desired parallel, dimeric coiled coil. […]
colonies: E = […] where E is the percentage of the library missing, m is the number of colonies collected and n is the library size. Library DNA quality was assessed by sequencing both the DNA pool and a number of single colonies to show degenerate codons in the correct positions in the pool and to show a diversity of library members from single […]

Ac-LEQQLEELAQENEELEKEAAELQQQIARLKNEVAKLENENKTLDREIKALQREYSHKSD-NH2 [ATF2W]
Kd (ATF2; ATF2W (50 μM) titrated into ATF2 (5 μM), 50 mM potassium phosphate, 150 mM NaCl, 10 mM TCEP, one-site model): 114 ± 21 nM | -TΔS (ATF2; ITC): 40 ± 4 kJ mol^–1 | N (stoichiometry) (ATF2; ITC): 0.99 ± 0.01 | ΔH (ATF2; ITC): −79 ± 3 kJ mol^–1 | outcome of TBS selection (ATF2 bZIP-CRE DNA): single dominant hit
